Laboratory results published in patent US20220064214A1, “NOVEL PEPTIDES AND USES THEREOF” (CENNA BIOSCIENCES INC., priority 2019, published 2022).
“And” between values parts separate entries of the source, which are not always exact repeats. Equal entries are not always repeated. “Also recorded” adds a separate entry of the source. Marks after values point to notes of the source that are not given here. Square brackets hold non-standard residues; d marks the D form. Peptide text beside a SMILES is read from it.

What was measured:
Aβ = test: Reduction of Aβ in retinal cells differentiated from iPSC derived from Alzheimer's disease patients; type: cell-based
Description: The accumulation of Aβ in the retina was studied in this example. Retinal cells were differentiated from induced pluripotent stem (iPSC) cells derived from Alzheimer's disease patients.

Aβ40 = test: Efficacy in reducing Aβ40 in rat plasma (ELISA); type: in vivo; conditions: for reduction in Aβ40 / Percent Decrease in Aβ 40 in Rat Plasma: 10 mg/kg SC; for Percent Decrease in Aβ 40 in Rat Plasma: mean of 3 rats, negative = decrease
Method: (§1) Blood was collected through jugular vein cannulas, and the samples were collected into tubes with K2EDTA. After centrifuging at a temperature of 2 to 8° C. at 4,000×g for 5 minutes, the resulting plasma was split into equal aliquots, frozen, and stored at −60 to −80° C. One aliquot was for PK analysis and the other was for Aβ analysis (see Example 4).
Rats (n=3 per peptide) were administered with P8, 8M1D, or 8M2D (10 mg/kg) subcutaneously, and plasma were collected at 0, 6, 12, and 24 h after dosing and Aβ40 analysis was carried out by ELISA (Invitrogen).

[1] = Pharmacokinetics study in rats, CSF; type: in vivo; set-up: CSF concentration, Mean IV / CSF concentration, Mean SC: unit not given here; conditions: rat; for CSF concentration, Mean IV: 10 mg/kg IV; for CSF concentration, Mean SC: 10 mg/kg SC
Method: (§2) An in-vivo study was carried out in rats to determine the pharmacokinetics (PK) of peptides P8, 8M1D and 8M2D in plasma and CSF. Each peptide was assessed through two dosage routes, intravenous (IV) and subcutaneous (SC). Three rats were assigned to each dose group with each peptide. Total of twelve rats per peptide were used.
CSF collection was performed by first anesthetizing animals at specified time points (see Table 5) with a mixture of 80 mg/kg ketamine and 8 mg/kg xylazine. The depth of anesthesia was monitored by toe pinches. CSF was collected via the cisterna magna (˜0.05 mL), and it was split into equal aliquots, frozen, and stored at −60 to −80° C.

[2] = Delivery to brain in transgenic mice (brain concentrations); type: in vivo; set-up: Brain Concentration / Brain Concentration, Mean: unit not given here
Method: Critical to the development of any therapeutic for diseases like AD is the requirement that it can be delivered to the brain. Delivery to brain and efficacy of P8 and 8M2D in reducing Aß was analyzed in the transgenic mice described in Section 6.3 above. […]

[3] = Pharmacokinetics study in rats, plasma; type: in vivo; conditions: rat; for plasma concentration: individual rats
Method: as §2, §1

## CC(=O)N[C@H](CC(=O)O)C(=O)N[C@@H](CCC(=O)O)C(=O)N[C@@H](CCC(=O)O)C(=O)N[C@@H](CCC(=O)O)C(=O)N[C@@H](CC(=O)O)C(=O)N[C@@H](CCC(=O)O)C(=O)N[C@@H](CCC(=O)O)C(=O)N[C@@H](CC(C)C)C(N)=O [8M2D, Ac-dEEEDEEL-NH2] (Ac-[dD]EEEDEEL-NH2)
Aβ
  production of Aβ in retinal cells in the presence of the peptide (in words): reduced
Aβ40; rat plasma, 12 hr post dosing
  reduction in Aβ40: about 35%
Aβ40; rat plasma, 24 h post dosing
  reduction in Aβ40: about 27%
Aβ40; rat plasma, SC
  reduction of Aβ40 compared with the other peptides (in words): more potent than P8 and 8M1D; also recorded: more effectively than P8 and 8M1D
Aβ40; 0 h
  Percent Decrease in Aβ 40 in Rat Plasma: 0.00%
Aβ40; 6 h
  Percent Decrease in Aβ 40 in Rat Plasma: −26.62%
Aβ40; 12 h
  Percent Decrease in Aβ 40 in Rat Plasma: −35.27%
Aβ40; 24 h
  Percent Decrease in Aβ 40 in Rat Plasma: −27.36%
[1]; 10 mg/kg IV and SC, at Cmax and most subsequent time points, 10 mg/kg
  exposure in CSF compared with P8 (in words): better exposures than P8; also recorded: higher exposure than P8
[1]; 0 hr
  CSF concentration, Mean IV: 0
  CSF concentration, Mean SC: 0
[1]; 0.5 hr
  CSF concentration, Mean IV: 104
  CSF concentration, Mean SC: 59
[1]; 1 hr
  CSF concentration, Mean IV: 55.6
  CSF concentration, Mean SC: 53.4
[1]; 2 hr
  CSF concentration, Mean IV: 68
  CSF concentration, Mean SC: 172
[1]; 4 hr
  CSF concentration, Mean IV: 11.5
  CSF concentration, Mean SC: 13.3
[1]; 8 hr
  CSF concentration, Mean IV: 1.75
  CSF concentration, Mean SC: 15.3
[1]; 12 hr
  CSF concentration, Mean IV: 0.378
  CSF concentration, Mean SC: 0.113
[1]; 24 hr
  CSF concentration, Mean IV: 1.2
  CSF concentration, Mean SC: 0
[2]; SC administration
  delivery to the APPTg mouse brain (in words): in sufficient amounts to reduce Aß in the brain
[2]; transgenic mice, SC, dose 10 mg/kg, individual animals
  Brain Concentration: BQL
[2]; transgenic mice, SC, dose 50 mg/kg, N 2
  Brain Concentration, Mean: 9.06
[2]; transgenic mice, SC, dose 250 mg/kg, N 5
  Brain Concentration, Mean: 15.4
[3]; 10 mg/kg IV and SC
  time after dosing at which detectable in plasma: ≥ 6 h
[3]; 10 mg/kg IV and SC, at Cmax and most subsequent time points
  exposure in plasma compared with P8 (in words): better exposures than P8
[3]; 10 mg/kg IV, 0 hr (pre-dose)
  plasma concentration: BQL
[3]; 10 mg/kg IV, 0.167 hr, 10 mg/kg, in ng/mL (unit assumed)
  plasma concentration: 20,900 and 21,000 and 23,400
[3]; 10 mg/kg IV, 0.5 hr, 10 mg/kg, in ng/mL (unit assumed)
  plasma concentration: 5,620 and 5,680 and 5,940
[3]; 10 mg/kg IV, 1 hr, 10 mg/kg, in ng/mL (unit assumed)
  plasma concentration: 1,450 and 1,040 and 1,190
[3]; 10 mg/kg IV, 2 hr, 10 mg/kg, in ng/mL (unit assumed)
  plasma concentration: 417 and 114 and 136
[3]; 10 mg/kg IV, 4 hr, 10 mg/kg
  plasma concentration: 10.2 and 7.54 ^b and 8.29 ^b
[3]; 10 mg/kg IV, 6 hr, 10 mg/kg
  plasma concentration: 2.09 ^b and 1.81 ^b and BQL
[3]; 10 mg/kg IV, 8 hr
  plasma concentration: BQL
[3]; 10 mg/kg IV, 12 hr
  plasma concentration: BQL
[3]; 10 mg/kg IV, 24 hr
  plasma concentration: BQL
[3]; 10 mg/kg SC, 0 hr (pre-dose)
  plasma concentration: BQL
[3]; 10 mg/kg SC, 0.167 hr, 10 mg/kg, in ng/mL (unit assumed)
  plasma concentration: 16,200 and 13,500 and 13,800 ^a
[3]; 10 mg/kg SC, 0.5 hr, 10 mg/kg, in ng/mL (unit assumed)
  plasma concentration: 9,030 and 9,010 and 7,190
[3]; 10 mg/kg SC, 1 hr, 10 mg/kg, in ng/mL (unit assumed)
  plasma concentration: 3,250 and 4,160 and 3,110
[3]; 10 mg/kg SC, 2 hr, 10 mg/kg, in ng/mL (unit assumed)
  plasma concentration: 609 and 987 and 1,040
[3]; 10 mg/kg SC, 4 hr, 10 mg/kg, in ng/mL (unit assumed)
  plasma concentration: 59.2 and 82.8 and 125
[3]; 10 mg/kg SC, 6 hr, 10 mg/kg
  plasma concentration: 3.77 ^b and 9.84 ^b and 21.6
[3]; 10 mg/kg SC, 8 hr, 10 mg/kg
  plasma concentration: 1.61 ^b and 4.37 ^b and 5.19 ^b
[3]; 10 mg/kg SC, 12 hr
  plasma concentration: BQL
[3]; 10 mg/kg SC, 24 hr
  plasma concentration: BQL
